The results in this text go back to ChEMBL document CHEMBL1154806, “Indole derivatives from a marine sponge-derived yeast as DPPH radical scavengers” (J Nat Prod, 2009).

The source made the active and inactive calls. The calls are words filed in the database; no cut-off is given here.

Common to all, as to type: functional
Assay [1] deals with Radical scavenging activity. In words: Antioxidant activity assessed as DPPH radical scavenging activity at 300 uM after 48 hrs by spectrophotometry.
Assay [2] is described as follows: Antioxidant activity assessed as ABTS radical scavenging activity.
Assay [3] can be described thus: Antioxidant activity assessed as oxygen radical scavenging activity by ORAC assay.

With `O=C1N[C@@H](Cc2ccc(O)cc2)C(=O)N2CCC[C@@H]12`, in assay [1], the Activity was 16%.

As to `Cc1cc(C(C)(C)C)c(O)c(C(C)(C)C)c1`, the Activity in assay [1] was determined as 86%. As to `CC(O)C(=O)OCCc1c[nH]c2ccccc12` (stereo not drawn), in assay [1], the Activity was found to be 33%. In the case of `O=C(CCCCO)OCCc1c[nH]c2ccccc12`, in assay [1], the Activity was 47%. `OCCc1c[nH]c2ccccc12`: the Activity in assay [1] amounted to 52%. Besides, the result in assay [2] was Active.

For the compound `OCCc1ccc(O)cc1`, the Activity in assay [1] stood at 26%. Besides, the outcome in assay [3] was Active.
